{"source": "patent US7825102B2", "about": "“Treatment of dry eye conditions” (Can-Fite Biopharma Ltd., priority 2004, dated 2010)", "assay_type_in_all_cases": "in vivo, human", "key": {"[1]": {"system": "patient with rheumatoid arthritis (RA) and secondary Sjogren symptoms, mainly manifested by dry eye", "test": "Phase 2 clinical trial: dry eye symptoms of one patient with RA and secondary Sjogren symptoms", "description": "A patient with rheumatoid arthritis (RA) and secondary Sjogren symptoms, mainly manifested by dry eye, treated for years with eye drops (tear substitutes) participated in a phase 2 clinical trial with IB-MECA for the treatment of active RA. […] The patient took part in a phase 2, multicenter, randomized, double-blind, parallel-group, dose-ranging study of the safety and preliminary efficacy of daily IB-MECA administered orally for 12 weeks to patients with active rheumatoid arthritis. The patient is a person with a 7 year history of RA, previously treated with 3 disease-modifying anti-rheumatic drugs (DMARDs), and a history of 2-3 years of dry eyes treated with tear substitutes a few times a day. After a 4 week DMARD washout period, the patient was treated with a blinded dose of IB-MECA—either 0.1, 1.0 or 4.0 mg q 12 h for 12 weeks. They are currently continuing IB-MECA treatment under a long term extension protocol of the original 12 weeks study."}, "[2]": {"system": "RA patients who also suffered from Sicca (dry eyes)", "test": "Schirmer test in RA patients with Sicca given oral IB-MECA capsules twice daily", "protocol": "The IB-MECA was formulated in oval softgel capsules. The capsules contained solutions of IB-MECA in Cremophor RH 40 and Miglyol 812. The capsules contained a dose of 0.1, 1 or 4 mg of IB-MECA, the exact composition of each capsules' type is shown in the following Tabels 1-3: The capsules with IB-MECA were given to patients orally twice daily. All patients had rheumatoid arthritis (RA) and were give IB-MECA within the framework of a clinical study aimed at testing the effect of IB-MECA in modifying RA disease symptoms in these patients. The patients received randomly capsules of one of the above there doses. The patients received the IB-MECA for a period of 12 weeks. 4 out of the treated patients also suffered from Sicca and the effect of IB-MECA on their dry eye symptoms was examined as well. Specifically, four patients at the age 58±4 years who suffered from RA for 8±2 years were followed. At base line, the patients had elevated levels of rheumatoid factor, i.e., 313±120 IU/ml (0<normal<40) and had suffered from dry eyes for 5±1.6 years. Upon treatment with IB-MECA for 6.25±1.1 months, an improvement in Schirmer's test from 8.5±1.4 mm to 15.6±2.9 mm was observed."}, "[3]": {"system": "patient with active rheumatoid arthritis", "test": "Phase 2 clinical trial: condition of the RA in the same patient", "settings": "one patient; blinded dose 0.1, 1.0 or 4.0 mg q 12 h oral, 12 weeks", "description": "The patient took part in a phase 2, multicenter, randomized, double-blind, parallel-group, dose-ranging study of the safety and preliminary efficacy of daily IB-MECA administered orally for 12 weeks to patients with active rheumatoid arthritis. The patient is a person with a 7 year history of RA, previously treated with 3 disease-modifying anti-rheumatic drugs (DMARDs), and a history of 2-3 years of dry eyes treated with tear substitutes a few times a day. After a 4 week DMARD washout period, the patient was treated with a blinded dose of IB-MECA—either 0.1, 1.0 or 4.0 mg q 12 h for 12 weeks. They are currently continuing IB-MECA treatment under a long term extension protocol of the original 12 weeks study."}, "[4]": {"settings": "Patient 3, dose 4.0 twice daily oral, 7 months treatment, base line 5"}}, "note": "Entries after “also recorded” stand apart in the source; their conditions may differ."}
{"smiles": "CNC(=O)[C@H]1O[C@@H](n2cnc3c(NCc4cccc(I)c4)ncnc32)[C@H](O)[C@@H]1O", "note": "[IB-MECA, N^6-(3-iodobenzyl)-adenosine-5′-N-methyluronamide]", "values": [{"measurement": "symptoms of dry eye (secondary Sjogren's syndrome)", "setting": "[1]; blinded dose 0.1, 1.0 or 4.0 mg q 12 h oral, 12 weeks plus extension", "value": "improved significantly; also recorded: substantial improvement"}, {"measurement": "time of IB-MECA administration after which tear substitutes were no longer needed", "setting": "[1]; patient-reported, blinded dose 0.1, 1.0 or 4.0 mg q 12 h oral", "value": "3-4 weeks"}, {"measurement": "current dry eye symptoms under continued treatment", "setting": "[1]; patient-reported, long term extension protocol", "value": "no symptoms of dry eye"}, {"measurement": "Schirmer test Left eye End of study", "setting": "[2]; Mean of 4 patients, doses 0.1-4.0 twice daily, mean 6.25 months treatment, base line mean 6.75", "value": 16.5, "unit": "mm"}, {"measurement": "Schirmer test Right eye End of study", "setting": "[2]; Mean of 4 patients, doses 0.1-4.0 twice daily, mean 6.25 months treatment, base line mean 10.25", "value": 14.75, "unit": "mm"}, {"measurement": "Schirmer test Left eye End of study", "setting": "[2]; Patient 1, dose 0.1 twice daily oral, 4 months treatment, base line 6", "value": 9, "unit": "mm"}, {"measurement": "Schirmer test Right eye End of study", "setting": "[2]; Patient 1, dose 0.1 twice daily oral, 4 months treatment, base line 14", "value": 9, "unit": "mm"}, {"measurement": "Schirmer test Left eye End of study", "setting": "[2]; Patient 2, dose 1.0 twice daily oral, 5 months treatment, base line 10", "value": 32, "unit": "mm"}, {"measurement": "Schirmer test Right eye End of study", "setting": "[2]; Patient 2, dose 1.0 twice daily oral, 5 months treatment, base line 15", "value": 23, "unit": "mm"}, {"measurement": "Schirmer test Left eye End of study", "setting": "[2]; [4]", "value": 16, "unit": "mm"}, {"measurement": "Schirmer test Right eye End of study", "setting": "[2]; [4]", "value": 17, "unit": "mm"}, {"measurement": "Schirmer test Left eye End of study", "setting": "[2]; Patient 4, dose 1.0 twice daily oral, 9 months treatment, base line 6", "value": 9, "unit": "mm"}, {"measurement": "Schirmer test Right eye End of study", "setting": "[2]; Patient 4, dose 1.0 twice daily oral, 9 months treatment, base line 7", "value": 10, "unit": "mm"}, {"measurement": "Schirmer's test after treatment", "setting": "[2]; four RA patients, treatment for 6.25±1.1 months, improvement from 8.5±1.4 mm at base line", "value": "15.6±2.9", "unit": "mm"}, {"measurement": "condition of the RA (swollen and tender joints, ESR and CRP, global assessments, pain and disability)", "setting": "[3]", "value": "marked improvement"}]}
